Experimental data: patent US20230130766A1 (SALK INSTITUTE FOR BIOLOGICAL STUDIES, priority 2020, published 2023)
Each block holds one compound with its values, some of them ahead of it.

Key:
MDA-MB-468 cells = test: CellTiter-Glo cell viability dose-response matrix, synergy by Combenefit (Loewe model); type: cell-based; details: 72 h; for concentrations at which significant synergy was observed: combination of Compound 349 and olaparib
Method: Different concentrations of Compound 349 with olaparib (FIG. 13A) were tested to measure the combined effect of inhibiting both ULK1/2 and PARP. For these experiments, MDA-MB-468 cells were treated with Compound 349 (0-15 μM) and olaparib (0-15 μM) in a dose-response matrix for 72 h, and cell viability was assessed by a CellTiter-Glo assay, and the synergistic effect was analyzed with Combenefit using the Loewe model.

ULK1 = target: T1, ULK1 (Homo sapiens, UniProt O75385); test: ULK1 inhibition assay; type: biochemical; details: * = tested as a mixture of regioisomers
T1 sequence (O75385 1-1050): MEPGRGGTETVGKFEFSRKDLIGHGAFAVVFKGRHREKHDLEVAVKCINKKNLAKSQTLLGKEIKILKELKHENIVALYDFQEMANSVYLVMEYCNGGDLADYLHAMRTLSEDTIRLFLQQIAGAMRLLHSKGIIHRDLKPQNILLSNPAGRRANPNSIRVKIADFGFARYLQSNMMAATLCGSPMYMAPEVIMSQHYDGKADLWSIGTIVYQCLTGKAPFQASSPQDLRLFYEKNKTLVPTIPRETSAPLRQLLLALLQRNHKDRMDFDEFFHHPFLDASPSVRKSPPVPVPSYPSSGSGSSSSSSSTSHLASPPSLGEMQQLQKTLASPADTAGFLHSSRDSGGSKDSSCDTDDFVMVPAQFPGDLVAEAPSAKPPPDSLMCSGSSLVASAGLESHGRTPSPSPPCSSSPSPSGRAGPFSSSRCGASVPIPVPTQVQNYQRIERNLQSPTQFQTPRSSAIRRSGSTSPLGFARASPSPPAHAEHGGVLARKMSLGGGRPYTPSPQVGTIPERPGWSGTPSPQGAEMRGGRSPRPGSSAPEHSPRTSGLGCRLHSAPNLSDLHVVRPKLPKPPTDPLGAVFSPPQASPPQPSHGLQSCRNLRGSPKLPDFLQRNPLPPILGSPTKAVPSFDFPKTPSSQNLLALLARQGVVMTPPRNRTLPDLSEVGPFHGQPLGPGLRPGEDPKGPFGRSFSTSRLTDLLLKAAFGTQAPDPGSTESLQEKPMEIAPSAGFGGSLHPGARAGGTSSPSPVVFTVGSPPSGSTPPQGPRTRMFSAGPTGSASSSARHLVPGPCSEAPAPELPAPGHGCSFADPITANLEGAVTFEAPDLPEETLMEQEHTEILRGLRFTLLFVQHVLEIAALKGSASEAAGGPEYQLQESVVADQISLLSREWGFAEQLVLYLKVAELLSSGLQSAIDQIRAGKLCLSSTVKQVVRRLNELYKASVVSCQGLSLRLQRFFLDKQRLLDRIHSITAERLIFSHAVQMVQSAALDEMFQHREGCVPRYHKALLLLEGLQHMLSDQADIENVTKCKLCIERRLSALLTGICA

[1] = tested on: MDA-MB-468 cells expressing mCherry-EGFP-LC3; test: Autophagic flux by flow cytometry; type: cell-based; details: 48 h
Method: To investigate the mechanism by which Compound 349 potentiates the cytotoxic effects of PARP inhibitors, MDA-MB-468 cells expressing mCherry-EGFP-LC3 were treated with olaparib (30 μM) and/or Compound 349 (10 μM) for 48 h and then quantified for autophagic flux. For these experiments, MDA-MB-468 cells stably expressing the mCherry-GFP-LC3 fusion protein were plated in 6-well plates at a density of 6×10^5 cells/well in growth media DMEM/F12+GlutaMAX-1 (Gibco) supplemented with 10% FBS (Gibco) and 1× Anti-Anti (Gibco) and allowed to grow overnight. Cells were treated, trypsinized, and then resuspended in PBS, and analytical cytometry was performed using an LSRFortessa 14-color (BD Biosciences) with a 488 nm and […] laser. For flow cytometry, wild type MDA-MB-468 cells were used as the unstained control, and MDA-MB-468 cells expressing either mCherry or GFP were used for comparison. Events of 10,000 were collected for each sample.

- IC50 (ULK1): < 200 nM
SMILES: COc1ccc(Nc2ncc(C(F)(F)F)c(NC3CC3)n2)cc1OC [Compound 349]
- antiproliferative synergy (MDA-MB-468 cells; Compound 349 (0-15 μM) with olaparib (0-15 μM)): strong antiproliferative synergy
- maximum synergy score (MDA-MB-468 cells; Compound 349 (0-15 μM) with olaparib (0-15 μM), Loewe model): 34
- concentrations at which significant synergy was observed (MDA-MB-468 cells): 0.021 to 15 µM
- olaparib-induced increase in autophagic flux ([1]; Compound 349 10 μM concomitant with olaparib 30 μM): significantly suppressed the olaparib-induced increase in autophagic flux to a level similar to that observed in untreated control cells

SMILES: O=C(c1cc(Cc2n[nH]c(=O)c3ccccc23)ccc1F)N1CCN(C(=O)C2CC2)CC1 [olaparib, reference compound]
- concentrations at which significant synergy was observed (MDA-MB-468 cells): 3.8 to 15 µM
- increase in autophagic flux compared with control cells ([1]; olaparib 30 μM alone): approximately 30%
